Experimental data published in ChEMBL document CHEMBL1201862, “PubChem BioAssay data set” (2004).
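These data come from cells grown in 96-well plates and exposed to compound for 48 hours at five concentrations. GI50 marks 50% less growth.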 The source made the active and inactive calls. No stated cut-off is given here; in the data, active = GI50 up to about 1.1 µM and inactive = higher.

Columns and labels:
Test in all cases: growth of human tumour cells (NCI), 48 h
[1] = tested on: Hs-578T
[2] = tested on: BT-549
[3] = tested on: LXFL 529
[4] = tested on: XF498
[5] = tested on: DMS-114
[6] = tested on: HOP-18
[7] = tested on: DLD-1
[8] = tested on: M19-MEL
[9] = tested on: RXF 631

| Structure (SMILES) | GI50 [1] | GI50 [2] | further results |
| --- | --- | --- | --- |
| CCOC(=O)c1c2cccccc-2nc1Nc1cccc2c(C)ccnc12 | > 10 µM (inactive) | > 10 µM (inactive) | – |
| O=C(N[C@@H](Cc1ccccc1)B(O)O)[C@H](Cc1cccc2ccccc12)NC(=O)N1CCOCC1 | 0.00175 µM (active) | 0.000468 µM (active) | – |
| CC1=C(Cl)C=CP(=O)(Oc2ccccc2)C1 (centres undefined) | – | – | GI50 [3]: 15.3 µM (inactive); GI50 [4]: 57.7 µM (inactive); GI50 [5]: 25.4 µM (inactive); GI50 [6]: 23.1 µM (inactive) |
| CN1Cc2ccccc2C2(COc3ccccc3C2=O)C1 (centres undefined) | – | – | GI50 [7]: 92.9 µM (inactive); GI50 [3]: 76.6 µM (inactive); GI50 [8]: > 100 µM (inactive); GI50 [5]: > 100 µM (inactive); GI50 [6]: > 100 µM (inactive) |
| COC1OC(CO)C(O)C(OC(=O)c2cc(O)c(O)c(O)c2)C1OC(=O)c1cc(O)c(O)c(O)c1 (centres undefined) | > 100 µM (inactive) | > 100 µM (inactive) | – |
| CCCCN(CCCC)C(=O)C(=O)C(C(=O)c1ccc(OC)cc1)c1ccc(OC)cc1 (centres undefined) | – | – | GI50 [7]: > 100 µM (inactive); GI50 [3]: > 100 µM (inactive); GI50 [9]: > 100 µM (inactive); GI50 [5]: 78.7 µM (inactive); GI50 [6]: > 100 µM (inactive) |
| Fc1cc(-c2cc(-c3ccccc3)no2)c(Cl)cc1Cl | > 34.8 µM (inactive) | 18.5 µM (inactive) | – |
| COc1cc(/C=C/C(=O)OCC23CC[C@@]4(C(=O)O)CCC(C)[C@H](C)C4C2=CCC2[C@@]4(C)CC[C@H](O)C(C)(C)C4CC[C@]23C)ccc1O (some centres undefined) | 4.66 µM (inactive) | 19.5 µM (inactive) | – |
| O=C1CC(O)c2cscc21 (centres undefined) | > 100 µM (inactive) | > 100 µM (inactive) | – |
| COc1cc(C(c2cc(OC)c(OC)c(OC)c2)N2C(=O)CCC2C(=O)O)cc(OC)c1OC (centres undefined) | > 100 µM (inactive) | > 100 µM (inactive) | – |
| Cc1cn(C2CC(n3cc(Cn4cc(I)c(=O)[nH]c4=O)nn3)C(CO)O2)c(=O)[nH]c1=O (centres undefined) | > 100 µM (inactive) | > 100 µM (inactive) | – |
| O=C(CC(=O)N1N=C(c2ccccc2)C(/N=N/c2ccccc2Cl)C1=O)Nc1ccccc1Cl (centres undefined) | – | – | GI50 [7]: 23 µM (inactive); GI50 [3]: 26.2 µM (inactive); GI50 [8]: 32.2 µM (inactive); GI50 [9]: 48.5 µM (inactive); GI50 [4]: 20.7 µM (inactive); GI50 [5]: 54.1 µM (inactive) |
| COc1ccc(C2(C3c4cc(OC)c(OC)cc4CCN3C)SCCCS2)cc1O (centres undefined) | 23.7 µM (inactive) | > 100 µM (inactive) | – |
| COc1ccc(-c2cc(O)c3cccnc3n2)cc1 | 24.9 µM (inactive) | 77.4 µM (inactive) | – |
| O=c1c2cn[nH]c2nc2scc(-c3ccc(Cl)cc3)n12 | 41.7 µM (inactive) | – | – |
| c1ccc(C(=NCCC2CNc3ccccc32)c2ccccc2)cc1 (centres undefined) | > 100 µM (inactive) | > 100 µM (inactive) | – |

| Structure (SMILES) | GI50 [1] | GI50 [2] | further results |
| --- | --- | --- | --- |
| C[C@]12CC[C@H](O)CC1=CC[C@@H]1[C@@H]2CC[C@]2(C)NC(=O)/C(=C\c3ccccc3)C[C@@H]12 | – | 17 µM (inactive) | – |
| [O-]/[N+](=C\c1ccccc1OC(=S)S)c1ccc(Cl)cc1 | 51.1 µM (inactive) | 24.1 µM (inactive) | – |
| Cn1c(=O)oc2cc(C(=S)N3CCCCC3)ccc21 | > 100 µM (inactive) | > 100 µM (inactive) | – |
| Nc1ncnc2c(C3OC(CO)C(O)C3O)n[nH]c12 (centres undefined) | – | – | GI50 [7]: 0.0575 µM (active); GI50 [8]: 2.42 µM (inactive); GI50 [4]: 0.158 µM (active); GI50 [5]: 0.208 µM (active); GI50 [6]: 0.0592 µM (active) |
| CCOC(=O)c1nc2ccccc2nc1Nc1ccc(F)cc1 | 10.2 µM (inactive) | 16.2 µM (inactive) | – |
| CCOP(=O)(OCC)C(c1ccc(F)cc1)N(C(=O)NC(F)(F)F)c1ccc(F)cc1 (centres undefined) | > 100 µM (inactive) | – | – |
| Cc1cc2ncn(C3CCCO3)c2cc1C (centres undefined) | > 100 µM (inactive) | > 100 µM (inactive) | – |
| FC(F)(F)c1ccc2c(c1)nc(Cc1ccc(Cl)cc1)n2CC1CCCN2CCCCC12 (centres undefined) | 1.19 µM (inactive) | 11.5 µM (inactive) | – |
| CC1=C(C(=O)N[C@@H](CC(C)C)C(=O)O)N2C(=O)[C@@H](NC(=O)[C@@H](N)Cc3ccccc3)[C@H]2SC1 | > 100 µM (inactive) | > 100 µM (inactive) | – |
| COc1ccc2[nH]c3c(C)c4c(c(C)c3c2c1)CN(C)C=C4 | 0.24 µM (active) | 1.97 µM (inactive) | GI50 [7]: 1.92 µM (inactive); GI50 [3]: 0.218 µM (active); GI50 [8]: 1.02 µM (active); GI50 [4]: 1.07 µM (active); GI50 [5]: 0.398 µM (active); GI50 [6]: 7.38 µM (inactive) |
| COc1ccc(/C=C\c2cc(OC)c(OC)c(OC)c2)c(O)c1O [COMBRETASTATIN A-1] | < 0.01 µM (active) | < 0.0223 µM (active) | GI50 [7]: 0.123 µM (active); GI50 [3]: 0.611 µM (active); GI50 [8]: 0.33 µM (active); GI50 [4]: 0.0551 µM (active); GI50 [5]: 0.104 µM (active); GI50 [6]: > 26.4 µM (inactive) |
| COC(=O)C1(NC(=O)C(Cc2ccccc2)N(C(=O)OC(C)(C)C)C(=O)OC(C)(C)C)CCCC1 (centres undefined) | > 100 µM (inactive) | – | – |
| O=C1CC2[C@@H](N3CCCC3)CCC(N1Cc1ccccc1)C2(O)O (some centres undefined) | > 100 µM (inactive) | > 100 µM (inactive) | – |
| C/C(=N\NC(=O)C[N+](C)(C)C)c1sc(-c2cccnc2)nc1C | – | – | GI50 [7]: > 100 µM (inactive); GI50 [3]: 67 µM (inactive); GI50 [8]: > 100 µM (inactive); GI50 [9]: > 100 µM (inactive); GI50 [4]: > 100 µM (inactive); GI50 [5]: > 100 µM (inactive) |
| COc1ccc2c(C)cc(N/N=C/c3ccc(OC)c4ccccc34)nc2c1 | 15.7 µM (inactive) | 20.1 µM (inactive) | – |
